The source of these data is ChEMBL document CHEMBL3091451, “Function-regulating pharmacophores in a sulfonamide class of glucocorticoid receptor agonists” (Bioorg Med Chem Lett, 2013).

The structures appear in SMILES notation.

The species entered for data set [1] is Mus musculus. Nature of the data set: Antiarthritic activity in collagen antibody-induced arthritis mouse model. The data set is classed as functional.
For data set [2], the species on record is Mus musculus. The experiment in a line: Antiinflammatory activity in mouse assessed as inhibition of LPS-stimulated TNFalpha production. The class given is functional.
Data set [3] can be described thus: Half life in human liver microsomes. The class given is ADME.
The target of a further data set is Cytochrome P450 3A4 (Homo sapiens, UniProt P08684). The experiment in a line: Inhibition of CYP3A4 (unknown origin) using 7-benzyloxy-4-trifluoromethylcoumarin as substrate. The class given is ADME.
Chain of Cytochrome P450 3A4 (P08684 whole entry): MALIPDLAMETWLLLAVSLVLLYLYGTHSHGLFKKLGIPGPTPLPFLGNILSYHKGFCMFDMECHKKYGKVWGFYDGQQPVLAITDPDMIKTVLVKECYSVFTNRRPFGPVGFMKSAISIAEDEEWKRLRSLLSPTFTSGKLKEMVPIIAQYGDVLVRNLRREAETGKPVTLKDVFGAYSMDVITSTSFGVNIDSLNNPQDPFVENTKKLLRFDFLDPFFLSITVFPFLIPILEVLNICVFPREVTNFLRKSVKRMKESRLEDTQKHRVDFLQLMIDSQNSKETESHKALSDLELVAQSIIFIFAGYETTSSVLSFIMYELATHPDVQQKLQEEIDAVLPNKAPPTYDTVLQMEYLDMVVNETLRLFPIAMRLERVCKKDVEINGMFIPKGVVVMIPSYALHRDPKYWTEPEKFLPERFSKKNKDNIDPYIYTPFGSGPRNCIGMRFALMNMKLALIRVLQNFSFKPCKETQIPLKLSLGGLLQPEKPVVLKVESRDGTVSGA
Another data set is filed under the species Homo sapiens. The experiment in a line: Selectivity ratio of IC50 for mineralocorticoid receptor (unknown origin) to IC50 for glucocorticoid receptor (unknown origin).
The target of data set [4] is T1, Glucocorticoid receptor (Homo sapiens, UniProt P04150).
T1 sequence (P04150 whole entry): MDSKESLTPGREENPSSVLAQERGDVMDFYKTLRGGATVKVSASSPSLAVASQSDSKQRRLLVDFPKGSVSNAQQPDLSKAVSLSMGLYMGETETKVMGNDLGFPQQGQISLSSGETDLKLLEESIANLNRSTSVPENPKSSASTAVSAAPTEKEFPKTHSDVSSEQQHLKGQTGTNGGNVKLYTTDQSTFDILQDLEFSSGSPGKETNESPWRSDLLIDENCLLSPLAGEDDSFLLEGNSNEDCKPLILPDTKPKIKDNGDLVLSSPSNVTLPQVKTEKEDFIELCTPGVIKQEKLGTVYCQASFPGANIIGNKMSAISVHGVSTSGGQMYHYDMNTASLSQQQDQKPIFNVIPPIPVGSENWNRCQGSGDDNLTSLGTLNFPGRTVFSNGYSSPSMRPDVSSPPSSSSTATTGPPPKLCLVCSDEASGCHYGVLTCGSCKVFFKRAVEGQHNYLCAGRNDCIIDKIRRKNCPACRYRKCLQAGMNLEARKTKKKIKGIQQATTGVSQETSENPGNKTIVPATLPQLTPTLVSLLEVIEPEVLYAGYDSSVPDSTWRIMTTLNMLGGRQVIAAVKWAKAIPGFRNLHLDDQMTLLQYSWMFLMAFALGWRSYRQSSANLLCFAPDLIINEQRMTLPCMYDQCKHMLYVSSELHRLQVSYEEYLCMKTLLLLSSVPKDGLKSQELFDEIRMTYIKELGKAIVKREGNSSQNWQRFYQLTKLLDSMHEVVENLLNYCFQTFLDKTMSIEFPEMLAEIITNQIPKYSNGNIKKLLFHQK
Nature of the data set: Agonist activity at glucocorticoid receptor in HFF assessed as inhibition of IL-1-induced IL-6 production after 24 hrs.

The target of data set [5] is T2, Mineralocorticoid receptor (Homo sapiens, UniProt P08235).
T2 sequence (P08235 whole entry): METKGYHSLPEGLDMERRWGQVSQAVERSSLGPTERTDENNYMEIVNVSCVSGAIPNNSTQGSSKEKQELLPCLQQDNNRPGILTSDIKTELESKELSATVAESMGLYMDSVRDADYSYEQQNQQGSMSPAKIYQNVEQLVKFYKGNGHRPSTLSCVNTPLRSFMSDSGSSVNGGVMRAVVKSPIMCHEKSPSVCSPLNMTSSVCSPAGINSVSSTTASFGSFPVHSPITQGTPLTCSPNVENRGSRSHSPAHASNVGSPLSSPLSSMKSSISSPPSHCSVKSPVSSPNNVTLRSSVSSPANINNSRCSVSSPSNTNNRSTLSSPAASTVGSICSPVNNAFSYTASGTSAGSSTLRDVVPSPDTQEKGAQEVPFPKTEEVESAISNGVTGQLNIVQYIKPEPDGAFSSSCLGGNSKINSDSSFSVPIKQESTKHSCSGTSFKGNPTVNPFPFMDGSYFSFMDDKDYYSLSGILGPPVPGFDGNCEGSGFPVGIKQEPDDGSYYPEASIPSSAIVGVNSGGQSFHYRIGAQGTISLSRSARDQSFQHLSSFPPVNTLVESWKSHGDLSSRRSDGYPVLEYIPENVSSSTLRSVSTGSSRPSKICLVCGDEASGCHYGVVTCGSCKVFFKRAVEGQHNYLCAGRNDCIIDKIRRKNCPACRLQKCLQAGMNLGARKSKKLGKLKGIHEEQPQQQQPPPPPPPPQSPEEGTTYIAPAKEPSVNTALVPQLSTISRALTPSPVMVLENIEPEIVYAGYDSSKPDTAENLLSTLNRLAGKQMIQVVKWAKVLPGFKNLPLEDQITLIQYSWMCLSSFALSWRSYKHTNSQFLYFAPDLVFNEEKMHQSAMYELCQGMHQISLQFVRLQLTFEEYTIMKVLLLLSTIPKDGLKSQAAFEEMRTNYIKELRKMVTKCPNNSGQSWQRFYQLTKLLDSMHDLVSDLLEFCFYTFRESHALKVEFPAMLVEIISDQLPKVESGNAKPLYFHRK
The experiment in a line: Binding affinity to mineralocorticoid receptor (unknown origin) by fluorescence polarization competitive binding assay.

A further data set addresses T3, Progesterone receptor (Homo sapiens, UniProt P06401).
T3 sequence (P06401 whole entry): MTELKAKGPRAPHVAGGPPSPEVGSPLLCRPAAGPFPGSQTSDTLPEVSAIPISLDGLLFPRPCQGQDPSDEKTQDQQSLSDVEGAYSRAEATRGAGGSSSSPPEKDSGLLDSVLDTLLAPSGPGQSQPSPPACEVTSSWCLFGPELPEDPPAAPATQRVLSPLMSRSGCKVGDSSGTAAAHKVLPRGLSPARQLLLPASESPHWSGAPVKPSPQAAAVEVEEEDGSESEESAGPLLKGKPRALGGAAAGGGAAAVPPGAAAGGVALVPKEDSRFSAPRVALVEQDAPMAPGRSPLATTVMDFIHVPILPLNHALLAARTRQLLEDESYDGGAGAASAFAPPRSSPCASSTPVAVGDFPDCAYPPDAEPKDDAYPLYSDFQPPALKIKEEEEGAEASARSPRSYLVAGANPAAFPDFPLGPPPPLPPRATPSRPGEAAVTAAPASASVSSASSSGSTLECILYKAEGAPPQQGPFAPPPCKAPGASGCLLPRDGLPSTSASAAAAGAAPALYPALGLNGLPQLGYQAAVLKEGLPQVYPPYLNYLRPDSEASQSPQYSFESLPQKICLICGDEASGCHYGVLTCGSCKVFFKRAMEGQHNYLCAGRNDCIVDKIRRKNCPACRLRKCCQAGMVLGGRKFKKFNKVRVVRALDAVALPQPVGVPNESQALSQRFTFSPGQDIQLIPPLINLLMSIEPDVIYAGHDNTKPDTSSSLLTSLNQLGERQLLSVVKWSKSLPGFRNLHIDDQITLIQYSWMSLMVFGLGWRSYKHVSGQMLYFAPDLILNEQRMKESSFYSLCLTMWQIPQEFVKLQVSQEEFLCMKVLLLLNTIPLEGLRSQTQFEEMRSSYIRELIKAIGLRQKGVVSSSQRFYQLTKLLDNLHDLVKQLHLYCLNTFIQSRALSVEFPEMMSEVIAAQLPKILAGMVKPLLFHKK
Nature of the data set: Displacement of TAMRA-labeled mifepristone from progesterone receptor (unknown origin) by fluorescence polarization competitive binding assay.

In data set [6] the target is T1, Glucocorticoid receptor. The experiment in a line: Displacement of TAMRA-labeled dexamethasone from glucocorticoid receptor (unknown origin) by fluorescence polarization competitive binding assay.

`CC[C@@H](Cn1cc(C#N)c2ccccc21)NS(=O)(=O)c1c(N)cc(Cl)cc1Cl`: the ED50 in the data set listed under Mus musculus [1] stood at 100 mg/kg; in the data set listed under Mus musculus [2], 10 mg/kg. The molecule also yielded a half-life in data set [3] of 3 min. The IC50 at Cytochrome P450 3A4 stood at 5800 nM; on Glucocorticoid receptor [4], 7 nM; in data set [5], 330 nM; at Progesterone receptor, 1500 nM; at Glucocorticoid receptor [6], 1 nM. The Ratio IC50 in the data set filed under Homo sapiens worked out at 330.

In turn, `CC[C@@H](Cn1ccc2ccccc21)NS(=O)(=O)c1c(N)cc(Cl)cc1Cl` gave a half-life in [3] of 3 min. Further, the IC50 against Cytochrome P450 3A4 is 570 nM; at Glucocorticoid receptor [4] it was over 2000 nM; in data set [5], 510 nM; at Progesterone receptor, over 10000 nM; at Glucocorticoid receptor [6] it was 2 nM.

In data set [3], `CC[C@@H](Cn1cc(C)c2ccccc21)NS(=O)(=O)c1c(N)cc(Cl)cc1Cl` displayed a half-life of 2 min. Moreover, the IC50 at Cytochrome P450 3A4 was 940 nM; at Glucocorticoid receptor [4] it was 10 nM; in data set [5], 260 nM; on Progesterone receptor it was 5000 nM; at Glucocorticoid receptor [6] it was 2 nM.
